Experimental data published in patent US20100099674A1 (priority 2007, published 2010).

Experiments:
[1] = tested on: Yersinia strain pIB102EL (YopE gene transcriptionally fused to luxAB); format: cell-based, Y. pseudotuberculosis
[2] = tested on: YopH secretion by Yersinia-strain pIB102; format: cell-based, Y. pseudotuberculosis; details: reduction of assay read-out (pNPP dephosphorylation, 405 nm) at 50 or 20 μM; Ca2+ depleted medium, 37° C.
[3] = tested on: J774A cells infected with Y. pseudotuberculosis YPIII (pIB102); format: cell-based; details: survival of the infected J774A cells at 20 or 10 μM; MOI 10, 16 h of infection
[4] = tested on: Enterotoxic Escherichia coli (ETEC); format: cell-based

Structure (SMILES) | Lux Assay [1] | YopH Assay [2] | Ex vivo Y. pseudotb. [3] | Ex vivo ETEC (Neg Control) [4]
O=[N+]([O-])c1cc(CN2CCN(c3ccccc3)CC2)c(O)c2ncccc12 [Substance 1] | ++ (key: + = <50% reduction of assay read-out at 50 μM; ++ = <50% reduction of assay read-out at 20 μM) | ++ (++ = <50% reduction of assay read-out at 20 μM) | ++ (++ = >70% survival of the infected cells at 10 μM) | –
CN(Cc1cc([N+](=O)[O-])c2cccnc2c1O)C1CCCCC1 [Substance 2] | + (key: + = <50% reduction of assay read-out at 50 μM; ++ = <50% reduction of assay read-out at 20 μM) | – | – | –
COc1ccccc1N1CCN(Cc2cc([N+](=O)[O-])c3cccnc3c2O)CC1 [Substance 3] | ++ (key: + = <50% reduction of assay read-out at 50 μM; ++ = <50% reduction of assay read-out at 20 μM) | + (+ = <50% reduction of assay read-out at 50 μM) | + (+ = >70% survival of the infected cells at 20 μM) | –
CC1CN(Cc2cc([N+](=O)[O-])c3cccnc3c2O)CC(C)O1 (stereo not drawn) [Substance 4] | + (key: + = <50% reduction of assay read-out at 50 μM; ++ = <50% reduction of assay read-out at 20 μM) | + (+ = <50% reduction of assay read-out at 50 μM) | + (+ = >70% survival of the infected cells at 20 μM) | + (key: + = >70% survival of the infected cells at 50 μM; ++ = >70% survival of the infected cells at 20 μM)
O=[N+]([O-])c1cc(CN2CCC(c3ccccc3)C2)c(O)c2ncccc12 (stereo not drawn) [Substance 5] | ++ (key: + = <50% reduction of assay read-out at 50 μM; ++ = <50% reduction of assay read-out at 20 μM) | ++ (++ = <50% reduction of assay read-out at 20 μM) | + (+ = >70% survival of the infected cells at 20 μM) | ++ (key: + = >70% survival of the infected cells at 50 μM; ++ = >70% survival of the infected cells at 20 μM)
Oc1c(CN2CCN(c3ccccn3)CC2)cc(Cl)c2cccnc12 [Substance 6] | + (key: + = <50% reduction of assay read-out at 50 μM; ++ = <50% reduction of assay read-out at 20 μM) | + (+ = <50% reduction of assay read-out at 50 μM) | + (+ = >70% survival of the infected cells at 20 μM) | + (key: + = >70% survival of the infected cells at 50 μM; ++ = >70% survival of the infected cells at 20 μM)
Oc1c(CN2CCN(c3ccc(F)cc3)CC2)cc(Br)c2cccnc12 [Substance 7] | + (key: + = <50% reduction of assay read-out at 50 μM; ++ = <50% reduction of assay read-out at 20 μM) | + (+ = <50% reduction of assay read-out at 50 μM) | ++ (++ = >70% survival of the infected cells at 10 μM) | ++ (key: + = >70% survival of the infected cells at 50 μM; ++ = >70% survival of the infected cells at 20 μM)
Oc1c(CN2CCN(c3ccc(F)cc3)CC2)cc(Cl)c2cccnc12 [Substance 8] | + (key: + = <50% reduction of assay read-out at 50 μM; ++ = <50% reduction of assay read-out at 20 μM) | + (+ = <50% reduction of assay read-out at 50 μM) | ++ (++ = >70% survival of the infected cells at 10 μM) | + (key: + = >70% survival of the infected cells at 50 μM; ++ = >70% survival of the infected cells at 20 μM)
